We go through one compound from PMC10415136, “Reverse transcriptases prime DNA synthesis” (Nucleic Acids Research, 2023).

The structures appear in SMILES notation.

The target in test [1] is T1, ScTy3 RT (Saccharomyces cerevisiae, UniProt Q99315).
T1 construct: gene TY3B-G; RT domain aa 1-339 of the mature RT from Ty3 Gag-Pol polyprotein, C-terminal MBP fusion; recombinant from E. coli
T1 sequence (Q99315 536-874): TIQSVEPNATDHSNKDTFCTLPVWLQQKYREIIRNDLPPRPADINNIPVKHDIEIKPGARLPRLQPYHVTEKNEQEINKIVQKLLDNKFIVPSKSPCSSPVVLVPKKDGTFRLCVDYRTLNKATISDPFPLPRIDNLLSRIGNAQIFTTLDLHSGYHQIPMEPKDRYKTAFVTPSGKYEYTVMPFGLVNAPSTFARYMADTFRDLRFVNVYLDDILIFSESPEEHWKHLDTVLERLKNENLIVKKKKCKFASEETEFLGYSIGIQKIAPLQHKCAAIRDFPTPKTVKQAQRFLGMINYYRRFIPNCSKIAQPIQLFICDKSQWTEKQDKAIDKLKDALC
Briefly: gel-based primase assay. It is filed as biochemical. Conditions: DNA or RNA template, gamma-phosphate FAM-labelled GTP, Mn2+.

For test [2], the target named is T2, LlLtrA RT domain (Lactococcus cremoris, UniProt P0A3U0).
T2 construct: gene ltrA; RT domain aa 1-472, endonuclease domain removed; recombinant from E. coli; catalytic D308, D309
T2 sequence (P0A3U0 1-472): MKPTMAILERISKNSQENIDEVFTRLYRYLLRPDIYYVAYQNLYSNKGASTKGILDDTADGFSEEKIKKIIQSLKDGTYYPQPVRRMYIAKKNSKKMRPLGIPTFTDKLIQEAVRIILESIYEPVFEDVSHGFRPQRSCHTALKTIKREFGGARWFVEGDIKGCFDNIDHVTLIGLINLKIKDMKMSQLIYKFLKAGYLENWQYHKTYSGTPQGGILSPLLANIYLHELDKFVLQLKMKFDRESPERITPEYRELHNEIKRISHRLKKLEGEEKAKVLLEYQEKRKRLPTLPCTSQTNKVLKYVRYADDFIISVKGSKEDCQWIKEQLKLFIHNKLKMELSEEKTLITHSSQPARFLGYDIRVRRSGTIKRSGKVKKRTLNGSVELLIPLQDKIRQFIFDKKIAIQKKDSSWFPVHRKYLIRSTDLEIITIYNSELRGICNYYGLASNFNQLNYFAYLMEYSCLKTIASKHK
Briefly: gel-based primase assay. It is filed as biochemical. The note with it: RNA template (oMZ27), gamma-phosphate FAM-labelled GTP, Mn2+.

With `Nc1nc2c(ncn2[C@H]2C[C@H](O)[C@@H](COP(=O)(O)OP(=O)(O)OP(=O)(O)O)O2)c(=O)[nH]1` [dGTP], the gel-based primase assay result in test [1] was “ScTy3 RT is efficient DNA and RNA-dependent primase”; in test [2] it was “LlLtrA RT is an RNA-dependent primase”.
